Experimental data taken from patent US8435984B2, “Tertiary amine substituted peptides useful as inhibitors of HCV replication” (Achillion Pharmaceuticals, Inc., priority 2007, dated 2013).

Tested on: HCV replicon
Assay: HCV replicon replication assay (NPT ELISA) in Huh-7 replicon-containing cells
Assay type: cell-based, Hepatitis C virus
Conditions: Hepatitis C virus, 72 h; inhibition of HCV replicon replication, Huh-7 HCV replicon-containing cells, three days
Description: Compounds claimed herein are tested for the ability to inhibit viral replication of the Hepatitis C replicon in cultured cells in which the HCV replicon construct has been incorporated. The HCV replicon system was described by Bartenschlager, et. al (Science, 285, pp. 110-113 (1999)). The replicon system is predictive of in vivo anti-HCV activity; compounds that are active in humans uniformly evidence activity in the replicon assay.
In this assay HCV replicon containing cells are treated with different concentrations of the test compound to ascertain the ability of the test compound to suppress replication of the HCV replicon. As a positive control, HCV replicon-containing cells are treated with different concentrations of interferon alpha, a known inhibitor of HCV replication. The replicon assay system includes Neomycin Phosphotransferase (NPT) as a component of the replicon itself in order to detect the transcription of replicon gene products in the host cell. Cells in which the HCV replicon is actively replicating have high levels of NPT; the level of NPT is proportional to HCV replication. […] The NPT level of each sample is measured using a captured ELISA.
The HCV replicon contains, 5′-3′, the HCV-IRES, the neomycin phosphotransferase (neo) gene, the IRES of encephalomyocarditis virus, which directs translation of HCV sequences NS3 to NS5B, and the 3′-NTR. The sequence of the HCV replicon has been deposited in GenBank (Accession no. AJ242652).
The replicon is transfected into Huh-7 cells using standard methods such as electroporation.
HCV replicon-containing cells are rinsed with once PBS once; 2 mls of trypsin are then added. Cells are incubated at 37° C. in a 5% CO2 incubator for 3-5 minutes. 10 mls of complete medium is added to stop the reaction. Cells are blown gently, put into a 15 ml tube, and spun at 1200 rpm for four minutes. The trypsin/medium solution is removed and 5 mls of medium (500 ml DMEM (high glucose)) from BRL catalog #12430-054; 50 mls 10% FBS, 5% Geneticin G418 (50 mg/ml, BRL catalog #10131-035), 5 ml MEM non-essential amino acids (100×BRL #11140-050) and 5 ml pen-strep (BRL #15140-148) is added. The cells and media are mixed carefully
Cells are plated with screening medium (500 ml DMEM (BRL #21063-029), 50 ml FBS (BRL #10082-147) and 5 ml MEM non-essential amino acid (BRL #11140-050) at 6000-7500 cells/100 μl/well of 96 well plate (6-7.5×10^5 cells/10 ml/plate). Plates are placed into 37° C. 5% CO2 incubator overnight. 6D. Assay
The following morning, drugs (test compounds or interferon alpha) are diluted in 96 well U bottom plates with media or DMSO/media, depending on the final concentration chosen for screening. Generally for 6 concentrations of each test compounds ranging from 10 micromolar to 0.03 micromolar are applied. 100 μl of the test compound dilution is placed in wells of the 96 well plate containing the HCV replicon cells. Media without drug is added to some wells as a negative controls. DMSO is known to affect cell growth. Therefore, if drugs diluted in DMSO are used, all wells, including negative control (media only) and positive control (interferon alpha) wells, must contain the same concentration of DMSO, for single dose screening. The plates are incubated at 37° C. in a humidified 5% CO2 environment for three days.
On day four, the NTPII assay is quantitated. The medium is poured from the plates and the plates are washed once in 200 μl of PBS. The PBS is then decanted and the plates tapped in a paper towel to remove any remaining PBS. Cells are fixed in situ with 100 id/well of pre-cooled (−20° C.) methanol:acetone (1:1) and the plates are placed at −20° C. for 30 minutes.
The fixing solution is poured from the plates and the plates allowed to air-dry completely (approximately one hour). The appearance of the dried cell layer is recorded and the density of the cells in the toxic wells is scored with the naked eye. […]

## C=CC1CC1(NC(=O)[C@@H]1C[C@@H](Oc2cc(-c3ccccc3)nc3cc(OC)ccc23)CN1C(=O)[C@H](C(C)C)N1CCCCC1)C(=O)O (stereo partly drawn) [Compound 57, 1-((2S,4R)-4-(7-methoxy-2-phenylquinolin-4-yloxy)-1-((S)-3-methyl-2-(piperidin-1-yl)butanoyl)pyrrolidine-2-carboxamido)-2-vinylcyclopropanecarboxylic acid]
  EC50: < 100 µM

## C=CC1CC1(NC(=O)[C@@H]1C[C@@H](Oc2cc(-c3ccccc3)nc3cc(OC)ccc23)CN1C(=O)[C@H](C1CCCCC1)N1CCCCC1)C(=O)O (stereo partly drawn) [Compound 58, 1-((2S,4R)-1-((S)-2-cyclohexyl-2-(piperidin-1-yl)acetyl)-4-(7-methoxy-2-phenylquinolin-4-yloxy)pyrrolidine-2-carboxamido)-2-vinylcyclopropanecarboxylic acid]
  EC50: < 100 µM

## C=CC1CC1(NC(=O)[C@@H]1C[C@@H](Oc2cc(-c3ccccc3)nc3cc(OC)ccc23)CN1C(=O)[C@H](C)N1CCCCC1)C(=O)O (stereo partly drawn) [Compound 59, 1-((2S,4R)-4-(7-methoxy-2-phenylquinolin-4-yloxy)-1-((S)-2-(piperidin-1-yl)propanoyl)pyrrolidine-2-carboxamido)-2-vinylcyclopropanecarboxylic acid]
  EC50: > 100 µM

## CCOC(=O)C12CC1/C=C\CCCCC[C@H](N1CCCCC1)C(=O)N1C[C@H](Oc3cc(-c4ccccc4)nc4cc(OC)ccc34)C[C@H]1C(=O)N2 (stereo partly drawn) [Compound 60, (2R,6S,16aS,Z)-ethyl 2-(7-methoxy-2-phenylquinolin-4-yloxy)-5,16-dioxo-6-(piperidin-1-yl)-1,2,3,5,6,7,8,9,10,11,13a,14,14a, 15,16,16a-hexadecahydrocyclopropa [e]pyrrolo[1,2-a] [1,4]diazacyclopentadecine-14a-carboxylatc]
  EC50: < 100 µM

## COc1ccc2c(O[C@@H]3C[C@H]4C(=O)NC5(C(=O)O)CC5/C=C\CCCCC[C@H](N5CCCCC5)C(=O)N4C3)cc(-c3ccccc3)nc2c1 (stereo partly drawn) [Compound 61, (2R,6S,16aS,Z)-2-(7-methoxy-2-phenylquinolin-4-yloxy)-5,16-dioxo-6-(pipcridin-1-yl)-1,2,3,5,6,7,8,9,10,11,13a,14,14a, 15,16,16a-hexadecahydrocyclopropa [e]pyrrolo[1,2-a] [1,4]diazacyclopentadecine-14a-carboxylic acid]
  EC50: < 100 µM

## CCOC(=O)[C@]12C[C@@H]1/C=C\CCCCC[C@H](N1CCCCC1)C(=O)N1C[C@H](Oc3cc(-c4ccccc4)nc4cc(OC)ccc34)C[C@H]1C(=O)N2 [Compound 62, (2R,6S,13aR,14aS,16aS,Z)-ethyl 2-(7-methoxy-2-phenylquinolin-4-yloxy)-5,16-dioxo-6-(piperidin-1-yl)-1,2,3,5,6,7,8,9,10,11,13a,14,14a, 15,16,16a-hexadecahydrocyclopropa [e]pyrrolo[1,2-a] [1,4]diazacyclopentadecine-14a-carboxylate]
  EC50: < 100 µM

## CCOC(=O)[C@@]12C[C@H]1/C=C\CCCCC[C@H](N1CCCCC1)C(=O)N1C[C@H](Oc3cc(-c4ccccc4)nc4cc(OC)ccc34)C[C@H]1C(=O)N2 [Compound 63, (2R,6S,13aS,14aR,16aS,Z)-ethyl 2-(7-methoxy-2-phenylquinolin-4-yloxy)-5,16-dioxo-6-(piperidin-1-yl)-1,2,3,5,6,7,8,9,10,11,13a,14,14a, 15,16,16a-hexadecahydrocyclopropa [e]pyrrolo[1,2-a] [1,4]diazacyclopentadecine-14a-carboxylate]
  EC50: < 100 µM

## C=CC1CC1(NC(=O)[C@@H]1C[C@@H](Oc2cc(-c3ccccc3)nc3cc(OC)ccc23)CN1C(=O)[C@H](C1CCCCC1)N1CCCCC1)C(=O)NS(=O)(=O)C1CC1 (stereo partly drawn) [Compound 64, (2S,4R)-1-((S)-2-cyclohexyl-2-(piperidin-1-yl)acetyl)-N-(1-(cyclopropylsulfonylcarbamoyl)-2-vinylcyclopropyl)-4-(7-methoxy-2-phenylquinolin-4-yloxy)pyrrolidine-2-carboxamide]
  EC50: < 100 µM

## C=C[C@H]1C[C@@]1(NC(=O)[C@@H]1C[C@@H](Oc2cc(-c3ccccc3)nc3cc(OC)ccc23)CN1C(=O)[C@H](c1ccccc1)N1CCCCC1)C(=O)NS(=O)(=O)C1CC1 [Compound 65, (2S,4R)-N-((1S,2R)-1-(cyclopropylsulfonylcarbamoyl)-2-vinylcyclopropyl)-4-(7-methoxy-2-phenylquinolin-4-yloxy)-1-((S)-2-phenyl-2-(piperidin-1-yl)acetyl)pyrrolidine-2-carboxamide]
  EC50: < 100 µM

## C=C[C@@H]1C[C@]1(NC(=O)[C@@H]1C[C@@H](Oc2cc(-c3ccccc3)nc3cc(OC)ccc23)CN1C(=O)[C@H](c1ccccc1)N1CCCCC1)C(=O)NS(=O)(=O)C1CC1 [Compound 66, (2S,4R)-N-((1R,2S)-1-(cyclopropylsulfonylcarbamoyl)-2-vinylcyclopropyl)-4-(7-methoxy-2-phenylquinolin-4-yloxy)-1-((S)-2-phenyl-2-(piperidin-1-yl)acetyl)pyrrolidine-2-carboxamide]
  EC50: < 100 µM

## C=CC1CC1(NC(=O)[C@@H]1C[C@@H](Oc2cc(-c3ccccc3)nc3cc(OC)ccc23)CN1C(=O)[C@H](C)N1CCCCC1)C(=O)NS(=O)(=O)C1CC1 (stereo partly drawn) [Compound 67, (2S,4R)-N-(1-(cyclopropylsulfonylcarbamoyl)-2-vinylcyclopropyl)-4-(7-methoxy-2-phenylquinolin-4-yloxy)-1-((S)-2-(piperidin-1-yl)propanoyl)pyrrolidine-2-carboxamide]
  EC50: < 100 µM

## C=CC1CC1(NC(=O)[C@@H]1C[C@@H](Oc2cc(-c3ccccc3)nc3cc(OC)ccc23)CN1C(=O)[C@H](C(C)C)N1CCCCC1)C(=O)NS(=O)(=O)C1CC1 (stereo partly drawn) [Compound 68, (2S,4R)-N-(1-(cyclopropylsulfonylcarbamoyl)-2-vinylcyclopropyl)-4-(7-methoxy-2-phenylquinolin-4-yloxy)-1-((S)-3-methyl-2-(piperidin-1-yl)butanoyl)pyrrolidine-2-carboxamide]
  EC50: < 100 µM

## C=CC1CC1(NC(=O)[C@@H]1C[C@@H](Oc2cc(-c3ccccc3)nc3cc(OC)ccc23)CN1C(=O)[C@H](CC(C)C)N1CCCCC1)C(=O)NS(=O)(=O)C1CC1 (stereo partly drawn) [Compound 69, (2S,4R)-N-(1-(cyclopropylsulfonylcarbamoyl)-2-vinylcyclopropyl)-4-(7-methoxy-2-phenylquinolin-4-yloxy)-1-((S)-4-methyl-2-(piperidin-1-yl)pentanoyl)pyrrolidine-2-carboxamide]
  EC50: < 100 µM
